Source: US20260224674A1, “COMPOSITIONS COMPRISING PEDF-DERIVED SHORT PEPTIDES AND MESENCHYMAL STEM CELLS FOR BONE/CARTILAGE REGENERATION” (BRIM Biotechnology, Inc., priority 2022, published 2026)

Assays:
[1] = system: ACLT surgery induced osteoarthritis mouse model; experiment: OARSI histologic scoring of cartilage degradation in ACLT surgery induced OA murine model; type: in vivo
Method: (§1) The OA murine model is induced by anterior cruciate ligament (ACLT) surgery. In brief, a medial arthrotomy was performed. With the knee in full flexion, the patella was dislocated laterally, the anterior cruciate ligament (ACLT) was transected, and then the wounds were closed.
(§2) The ACLT surgery was performed on the unilateral knees of each mouse for 2 months prior to the treatments. Twenty mice were randomly divided into 5 groups: (i) non-treated group [n=3]; (ii) vehicle-treated group [n=4]; (iii) PDSP-treated group [n=5], (iv) vehicle combined with IPFP-MSC-treated group [n=3]; (v) PDSP combined with IPFP-MSC-treated group [n=5] in ACLT surgery induced OA groups, while the knees without surgery serve as sham-operated group [n=4]. At eight weeks after ACLT surgery (first injection), the knee joints of the non-treated, vehicle-treated, or PDSP-treated groups were intra-articular injected, respectively, with 0.01 mL PBS, vehicle, or PDSP, while those of the vehicle or PDSP combined with IPFP-MSC groups were injected with hMSCs in 0.01 mL. MSCs were intra-articular injected at the first treatment only (i.e., at 8 weeks). For the second treatments (two weeks after MSC injections or 10 weeks after ACLT surgery), those of the vehicle or PDSP combined with IPFP-MSC injection groups were injected with 0.01 mL vehicle or PDSP. […]

[2] = system: human bone marrow-derived mesenchymal stem cells (hBM-MSC); experiment: hBM-MSC spheroid chondrogenesis, Alcian Blue staining at day 14; type: cell-based; conditions: PDSP 10 μM, chondrogenic differentiation medium with TGFβ1 10 ng/ml
Method: To shed light on possible mechanisms for the effects of PDSP chondrogenesis, further experiments were conducted to assess the effects of PDSP on MSC. The MSC used in this study are human bone marrow-derived mesenchymal stem cells (hBM-MSC) from Gibco (StemPro™ BM Mesenchymal Stem Cells). […] Human bone marrow MSC spheroids were cultured with chondrogenic differentiation medium, with or without TGFβ1 and with or without PDSP. The media were changed every 3 days. On day 14, the cartilage spheroids were collected for evaluation. The various media compositions are as follows (the base medium is a high-glucose DMEM supplemented with 1×10^−7M dexamethasone, 1×10^−3M sodium pyruvate, 1.7×10^−4M L-ascorbic acid-2-phosphate, 3.5×10^−4M proline, 5 mL ITS+Premix in 500 mL medium, and 1% antibiotic): […]

[3] = system: ACLT surgery induced osteoarthritis mouse model; experiment: Safranin O and H&E histological staining of the murine knee joints; type: in vivo; conditions: ACLT surgery induced OA mice; compared with non-treated OA groups
Method: as §1, §2

type X collagen = experiment: Type X collagen immunohistochemistry (IHC) staining of the murine knee joint; type: in vivo, mouse; conditions: ACLT surgery induced OA mice
Method: as §1, §2

type II collagen = experiment: Type II collagen immunohistochemistry (IHC) staining of the murine knee joint; type: in vivo, mouse; conditions: ACLT surgery induced OA mice; compared with non-treated and vehicle-treated OA groups
Method: as §1, §2

Sequence: SLGAEQRTESIIHRALYYDLISSPDIHGT (listed as Homo sapiens) [PDSP, PEDF-derived short peptide]
- OARSI scores ([1]; ACLT surgery induced OA groups, text values with their spread (SEM per Table 2)): 3.47±0.19
- The histologic scoring of murine OA (OARSI score), Average ([1]; ACLT surgery induced osteoarthritis mice, intra-articular injection at 8 and 10 weeks after surgery, average over animals): 3.47
- Cartilage spheroids size (total area) [2]: increase the cartilage spheroids size
- Chondrogenesis (Alcian blue positive area; differentiation of hBM-MSC into chondrocytes) [2]: promote chondrogenesis
- Cartilage loss and surface irregularity in the medial and lateral compartments (safranin O and H&E staining) [3]: less cartilage loss and surface irregularity
- Type X collagen signals (IHC) (type X collagen): decreased
- Expression of type II collagen (IHC) (type II collagen): increased
